Type in all cases: functional
The target of assay [1] is T1, Heat shock factor protein 1 (Mus musculus, UniProt P38532).
T1 sequence (P38532 whole entry): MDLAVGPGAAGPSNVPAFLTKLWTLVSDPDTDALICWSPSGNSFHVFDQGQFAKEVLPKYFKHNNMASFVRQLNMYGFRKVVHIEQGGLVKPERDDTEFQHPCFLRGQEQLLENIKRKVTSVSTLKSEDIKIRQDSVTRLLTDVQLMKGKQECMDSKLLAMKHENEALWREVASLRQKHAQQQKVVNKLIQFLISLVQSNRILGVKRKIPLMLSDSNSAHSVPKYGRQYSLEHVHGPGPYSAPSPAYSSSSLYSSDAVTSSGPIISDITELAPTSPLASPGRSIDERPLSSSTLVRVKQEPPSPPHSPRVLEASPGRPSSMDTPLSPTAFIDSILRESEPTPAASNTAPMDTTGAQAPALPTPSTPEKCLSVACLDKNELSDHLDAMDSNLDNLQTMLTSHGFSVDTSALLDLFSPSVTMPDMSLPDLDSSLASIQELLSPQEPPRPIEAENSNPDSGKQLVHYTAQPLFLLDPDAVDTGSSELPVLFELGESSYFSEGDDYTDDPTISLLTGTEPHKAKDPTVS
The assay is described as follows: decrease of HSF1-responsive luciferase luminescence – cell-based, NIH3T3, dose retest, confirmation (AID 2382).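 Further: NIH3T3 fibroblasts with HSF1-driven luciferase reporter stressed by proteasome inhibitor MG132; luminescence from HSF1-driven luciferase expression after 8 hours of MG132 stress.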

The next assay has as its system Vero. The assay is described as follows: viability of Vero cells under compound – cytotoxicity control for flavivirus capping enzyme inhibitors (AID 588742). The note with it: Chlorocebus sabaeus.
Assay [2] deals with Dual specificity protein kinase CLK2 (Homo sapiens, UniProt P49760).
Assay [3] has as its target Phosphorylase b kinase gamma catalytic chain, liver/testis isoform (Homo sapiens, UniProt P15735).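 Further: PHKG2 measured as one member of a kinome-wide kinase panel.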
Assay [4] concerns the target 5'-AMP-activated protein kinase catalytic subunit alpha-1 (Homo sapiens, UniProt Q13131).
Assay [5] concerns the target Protein kinase C delta type (Homo sapiens, UniProt Q05655).
The target of assay [6] is Ribosomal protein S6 kinase beta-1 (Homo sapiens, UniProt P23443).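 Further: measured as one member of a kinome-wide profiling panel.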
Assay [7] addresses Calcium/calmodulin-dependent protein kinase type II subunit gamma (Homo sapiens, UniProt Q13555).
For assay [8], the target named is T2, Tyrosine-protein kinase receptor TYRO3 (Homo sapiens, UniProt Q06418).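 Further: TYRO3 value obtained as one member of a kinome-wide profiling panel.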
T2 sequence (Q06418 whole entry): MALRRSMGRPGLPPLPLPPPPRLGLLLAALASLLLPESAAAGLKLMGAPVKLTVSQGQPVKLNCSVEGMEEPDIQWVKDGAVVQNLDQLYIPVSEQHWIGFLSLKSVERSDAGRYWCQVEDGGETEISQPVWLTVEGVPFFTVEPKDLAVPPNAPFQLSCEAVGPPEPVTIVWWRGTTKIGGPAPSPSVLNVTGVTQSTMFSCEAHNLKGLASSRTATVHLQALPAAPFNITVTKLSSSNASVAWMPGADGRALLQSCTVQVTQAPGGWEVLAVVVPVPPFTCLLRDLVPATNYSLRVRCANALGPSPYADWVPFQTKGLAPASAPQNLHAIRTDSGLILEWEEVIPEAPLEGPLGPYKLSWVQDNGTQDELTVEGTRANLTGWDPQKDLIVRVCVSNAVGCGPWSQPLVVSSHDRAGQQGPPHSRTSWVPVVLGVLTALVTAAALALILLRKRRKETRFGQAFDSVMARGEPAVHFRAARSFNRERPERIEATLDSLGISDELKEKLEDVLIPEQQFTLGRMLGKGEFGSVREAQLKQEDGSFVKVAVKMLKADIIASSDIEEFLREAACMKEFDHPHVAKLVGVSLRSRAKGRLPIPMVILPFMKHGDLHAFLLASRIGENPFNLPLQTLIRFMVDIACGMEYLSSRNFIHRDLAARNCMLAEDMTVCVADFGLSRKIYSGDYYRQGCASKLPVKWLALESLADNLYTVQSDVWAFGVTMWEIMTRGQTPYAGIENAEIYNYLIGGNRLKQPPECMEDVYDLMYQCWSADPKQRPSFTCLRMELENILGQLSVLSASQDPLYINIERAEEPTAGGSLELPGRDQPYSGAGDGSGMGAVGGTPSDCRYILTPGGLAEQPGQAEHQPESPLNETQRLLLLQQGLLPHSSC

The target in assay [9] is MAP kinase-activated protein kinase 5 (Homo sapiens, UniProt Q8IW41).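 Further: measured as one member of a kinome panel.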
Assay [10] addresses Tyrosine-protein kinase JAK3 (Homo sapiens, UniProt P52333).
The target of assay [11] is Proto-oncogene tyrosine-protein kinase ROS (Homo sapiens, UniProt P08922).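 Further: ROS1 tested as one member of a kinome-wide kinase panel.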
For assay [12], the target named is MAP/microtubule affinity-regulating kinase 3 (Homo sapiens, UniProt P27448).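 Further: MARK3 affinity measured as one member of a kinome panel.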
For assay [13], the target named is Tyrosine-protein kinase Srms (Homo sapiens, UniProt Q9H3Y6).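 Further: SRMS measured as one member of a kinome-wide kinase profiling panel.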
Assay [14] concerns the target Hepatocyte growth factor receptor (Homo sapiens, UniProt P08581).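 Further: kinase panel profiling across the kinome, with MET as the panel member.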
In assay [15] the target is Receptor-type tyrosine-protein kinase FLT3 (Homo sapiens, UniProt P36888).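 Further: FLT3 was tested as one member of a kinome-wide kinase panel.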
Assay [16] addresses Calcium/calmodulin-dependent protein kinase type II subunit beta (Homo sapiens, UniProt Q13554).
For assay [17], the target named is Serine/threonine-protein kinase Nek4 (Homo sapiens, UniProt P51957).
In assay [18] the target is Protein kinase C iota type (Homo sapiens, UniProt P41743).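 Further: measured within a kinome-wide kinase panel, PRKCI as panel member.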
Assay [19] addresses Serine/threonine-protein kinase DCLK1 (Homo sapiens, UniProt O15075).
Assay [20] has as its target Serine/threonine-protein kinase Nek2 (Homo sapiens, UniProt P51955).
Assay [21] addresses Vascular endothelial growth factor receptor 1 (Homo sapiens, UniProt P17948).
Assay [22] addresses STE20-like serine/threonine-protein kinase (Homo sapiens, UniProt Q9H2G2).
Assay [23] deals with Fibroblast growth factor receptor 3 (Homo sapiens, UniProt P22607).
In assay [24] the target is Receptor tyrosine-protein kinase erbB-4 (Homo sapiens, UniProt Q15303).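 Further: ERBB4 member of a kinome-wide kinase profiling panel.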
For assay [25], the target named is Lymphokine-activated killer T-cell-originated protein kinase (Homo sapiens, UniProt Q96KB5).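 Further: value comes from a kinase panel screen in which TOPK was one of the panel members.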
Assay [26] addresses Mitogen-activated protein kinase kinase kinase kinase 4 (Homo sapiens, UniProt O95819).

Calls of active or inactive are those of the source. Bounds are passed on as bounds.

Chain of Mitogen-activated protein kinase kinase kinase kinase 4 (O95819 whole entry): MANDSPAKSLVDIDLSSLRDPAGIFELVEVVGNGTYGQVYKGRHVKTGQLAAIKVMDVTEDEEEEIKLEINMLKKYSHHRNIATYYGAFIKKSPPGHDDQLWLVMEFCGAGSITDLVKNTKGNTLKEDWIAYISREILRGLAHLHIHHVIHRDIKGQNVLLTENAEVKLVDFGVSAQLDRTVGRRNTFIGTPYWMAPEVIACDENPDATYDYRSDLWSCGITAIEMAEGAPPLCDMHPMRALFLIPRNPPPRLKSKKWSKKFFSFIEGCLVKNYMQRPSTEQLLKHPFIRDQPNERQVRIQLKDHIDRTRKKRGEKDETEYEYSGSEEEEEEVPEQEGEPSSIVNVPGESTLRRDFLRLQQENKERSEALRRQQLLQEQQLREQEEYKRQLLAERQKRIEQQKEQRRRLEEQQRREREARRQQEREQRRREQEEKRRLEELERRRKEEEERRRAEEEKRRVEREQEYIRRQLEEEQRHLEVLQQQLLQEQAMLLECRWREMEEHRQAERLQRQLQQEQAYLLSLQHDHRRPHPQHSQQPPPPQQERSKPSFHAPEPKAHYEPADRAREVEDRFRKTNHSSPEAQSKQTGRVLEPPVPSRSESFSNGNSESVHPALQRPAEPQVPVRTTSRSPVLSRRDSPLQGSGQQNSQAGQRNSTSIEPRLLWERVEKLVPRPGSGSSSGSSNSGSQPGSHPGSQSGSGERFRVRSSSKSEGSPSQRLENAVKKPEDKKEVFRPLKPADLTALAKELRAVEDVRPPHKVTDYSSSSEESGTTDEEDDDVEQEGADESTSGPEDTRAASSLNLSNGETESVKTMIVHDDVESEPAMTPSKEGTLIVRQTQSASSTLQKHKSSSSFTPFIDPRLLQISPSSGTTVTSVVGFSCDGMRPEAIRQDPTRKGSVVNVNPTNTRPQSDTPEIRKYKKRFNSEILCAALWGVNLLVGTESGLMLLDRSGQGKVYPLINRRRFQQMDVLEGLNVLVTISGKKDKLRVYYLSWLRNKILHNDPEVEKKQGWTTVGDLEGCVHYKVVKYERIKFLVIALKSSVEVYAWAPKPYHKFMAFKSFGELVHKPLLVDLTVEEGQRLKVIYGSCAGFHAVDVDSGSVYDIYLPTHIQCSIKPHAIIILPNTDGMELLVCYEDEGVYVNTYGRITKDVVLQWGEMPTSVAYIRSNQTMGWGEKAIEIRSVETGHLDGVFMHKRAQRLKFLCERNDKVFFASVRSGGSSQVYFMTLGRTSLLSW
Chain of Protein kinase C iota type (P41743 whole entry): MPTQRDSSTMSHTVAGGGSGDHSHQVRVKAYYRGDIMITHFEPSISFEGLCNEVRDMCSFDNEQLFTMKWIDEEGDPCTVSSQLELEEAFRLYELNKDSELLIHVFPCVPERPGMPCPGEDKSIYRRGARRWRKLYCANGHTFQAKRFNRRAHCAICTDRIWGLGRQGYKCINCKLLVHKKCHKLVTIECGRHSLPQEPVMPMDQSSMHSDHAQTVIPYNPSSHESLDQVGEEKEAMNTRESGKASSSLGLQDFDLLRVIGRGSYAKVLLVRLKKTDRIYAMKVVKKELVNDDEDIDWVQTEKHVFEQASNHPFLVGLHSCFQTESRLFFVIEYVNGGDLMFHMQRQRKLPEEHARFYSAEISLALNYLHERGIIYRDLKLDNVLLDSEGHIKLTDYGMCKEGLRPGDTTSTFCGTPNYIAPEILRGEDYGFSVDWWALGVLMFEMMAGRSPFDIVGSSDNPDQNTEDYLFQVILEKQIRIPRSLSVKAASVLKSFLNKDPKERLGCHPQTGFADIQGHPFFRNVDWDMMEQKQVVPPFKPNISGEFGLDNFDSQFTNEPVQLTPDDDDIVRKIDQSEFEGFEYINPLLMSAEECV
Chain of Receptor-type tyrosine-protein kinase FLT3 (P36888 whole entry): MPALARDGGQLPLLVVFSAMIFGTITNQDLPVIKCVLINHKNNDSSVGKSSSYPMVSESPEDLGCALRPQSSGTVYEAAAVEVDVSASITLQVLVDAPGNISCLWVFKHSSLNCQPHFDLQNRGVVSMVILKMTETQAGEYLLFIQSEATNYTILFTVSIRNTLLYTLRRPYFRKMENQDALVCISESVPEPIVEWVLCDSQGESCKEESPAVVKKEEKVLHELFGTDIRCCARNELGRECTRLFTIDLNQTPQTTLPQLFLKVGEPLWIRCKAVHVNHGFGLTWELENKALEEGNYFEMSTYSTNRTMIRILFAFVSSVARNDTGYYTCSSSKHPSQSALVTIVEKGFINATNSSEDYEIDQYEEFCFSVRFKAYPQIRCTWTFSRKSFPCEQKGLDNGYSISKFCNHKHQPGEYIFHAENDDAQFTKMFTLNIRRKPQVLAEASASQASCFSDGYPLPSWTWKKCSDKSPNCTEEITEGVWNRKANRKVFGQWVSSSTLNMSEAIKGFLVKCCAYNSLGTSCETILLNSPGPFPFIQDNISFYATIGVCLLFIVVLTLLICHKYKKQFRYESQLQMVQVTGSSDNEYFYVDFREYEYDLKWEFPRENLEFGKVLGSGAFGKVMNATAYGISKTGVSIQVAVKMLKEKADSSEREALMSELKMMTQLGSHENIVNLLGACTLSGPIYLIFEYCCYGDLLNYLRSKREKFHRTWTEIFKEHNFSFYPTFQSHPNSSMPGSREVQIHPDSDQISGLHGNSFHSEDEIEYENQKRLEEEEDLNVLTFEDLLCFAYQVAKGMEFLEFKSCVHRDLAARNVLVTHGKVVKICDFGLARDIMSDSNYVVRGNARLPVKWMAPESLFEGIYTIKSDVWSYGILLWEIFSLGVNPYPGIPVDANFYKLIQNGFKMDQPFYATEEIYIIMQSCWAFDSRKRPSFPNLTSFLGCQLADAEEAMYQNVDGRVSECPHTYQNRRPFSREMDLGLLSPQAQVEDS
Chain of Calcium/calmodulin-dependent protein kinase type II subunit beta (Q13554 whole entry): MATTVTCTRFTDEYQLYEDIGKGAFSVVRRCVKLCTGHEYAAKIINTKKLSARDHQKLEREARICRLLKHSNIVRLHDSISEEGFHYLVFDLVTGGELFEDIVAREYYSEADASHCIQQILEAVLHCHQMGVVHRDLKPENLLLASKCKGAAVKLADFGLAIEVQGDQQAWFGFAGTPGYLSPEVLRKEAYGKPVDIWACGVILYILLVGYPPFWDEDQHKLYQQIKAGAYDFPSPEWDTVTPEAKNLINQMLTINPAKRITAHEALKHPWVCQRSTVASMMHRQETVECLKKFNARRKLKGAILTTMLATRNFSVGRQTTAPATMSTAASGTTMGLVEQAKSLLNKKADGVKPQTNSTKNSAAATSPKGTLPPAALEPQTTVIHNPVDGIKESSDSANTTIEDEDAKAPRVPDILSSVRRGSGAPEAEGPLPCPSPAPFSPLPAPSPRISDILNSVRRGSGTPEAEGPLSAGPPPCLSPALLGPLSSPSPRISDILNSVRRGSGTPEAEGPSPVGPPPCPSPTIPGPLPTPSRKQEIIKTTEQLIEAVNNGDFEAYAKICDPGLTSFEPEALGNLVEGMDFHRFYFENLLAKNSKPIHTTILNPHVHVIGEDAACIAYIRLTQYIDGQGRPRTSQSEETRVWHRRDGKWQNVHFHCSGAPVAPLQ
Chain of Serine/threonine-protein kinase Nek2 (P51955 whole entry): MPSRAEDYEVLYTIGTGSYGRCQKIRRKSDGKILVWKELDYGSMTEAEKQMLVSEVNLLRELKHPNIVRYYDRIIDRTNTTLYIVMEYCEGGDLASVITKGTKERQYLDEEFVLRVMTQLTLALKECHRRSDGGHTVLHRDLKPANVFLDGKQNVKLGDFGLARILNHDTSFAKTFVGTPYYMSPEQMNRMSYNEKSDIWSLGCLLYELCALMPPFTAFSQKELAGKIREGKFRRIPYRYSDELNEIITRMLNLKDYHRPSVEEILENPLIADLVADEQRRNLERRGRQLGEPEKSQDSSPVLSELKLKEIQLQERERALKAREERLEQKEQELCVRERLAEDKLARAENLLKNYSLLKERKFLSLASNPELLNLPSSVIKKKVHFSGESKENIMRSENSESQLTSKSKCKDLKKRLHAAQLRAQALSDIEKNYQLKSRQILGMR
Chain of Ribosomal protein S6 kinase beta-1 (P23443 whole entry): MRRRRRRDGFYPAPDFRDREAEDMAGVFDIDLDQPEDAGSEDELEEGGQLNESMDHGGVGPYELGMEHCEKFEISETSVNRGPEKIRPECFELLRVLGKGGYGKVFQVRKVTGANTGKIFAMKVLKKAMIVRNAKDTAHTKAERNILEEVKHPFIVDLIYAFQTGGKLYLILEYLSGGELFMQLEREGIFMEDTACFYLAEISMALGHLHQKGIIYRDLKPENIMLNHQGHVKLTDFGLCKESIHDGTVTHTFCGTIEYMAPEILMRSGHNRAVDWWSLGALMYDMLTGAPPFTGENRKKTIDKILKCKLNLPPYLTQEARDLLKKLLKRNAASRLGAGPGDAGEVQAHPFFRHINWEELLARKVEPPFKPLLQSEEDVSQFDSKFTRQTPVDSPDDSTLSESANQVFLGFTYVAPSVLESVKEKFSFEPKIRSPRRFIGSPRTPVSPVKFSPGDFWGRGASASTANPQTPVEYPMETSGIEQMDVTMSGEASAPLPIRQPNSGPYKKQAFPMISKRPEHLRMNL
Chain of 5'-AMP-activated protein kinase catalytic subunit alpha-1 (Q13131 whole entry): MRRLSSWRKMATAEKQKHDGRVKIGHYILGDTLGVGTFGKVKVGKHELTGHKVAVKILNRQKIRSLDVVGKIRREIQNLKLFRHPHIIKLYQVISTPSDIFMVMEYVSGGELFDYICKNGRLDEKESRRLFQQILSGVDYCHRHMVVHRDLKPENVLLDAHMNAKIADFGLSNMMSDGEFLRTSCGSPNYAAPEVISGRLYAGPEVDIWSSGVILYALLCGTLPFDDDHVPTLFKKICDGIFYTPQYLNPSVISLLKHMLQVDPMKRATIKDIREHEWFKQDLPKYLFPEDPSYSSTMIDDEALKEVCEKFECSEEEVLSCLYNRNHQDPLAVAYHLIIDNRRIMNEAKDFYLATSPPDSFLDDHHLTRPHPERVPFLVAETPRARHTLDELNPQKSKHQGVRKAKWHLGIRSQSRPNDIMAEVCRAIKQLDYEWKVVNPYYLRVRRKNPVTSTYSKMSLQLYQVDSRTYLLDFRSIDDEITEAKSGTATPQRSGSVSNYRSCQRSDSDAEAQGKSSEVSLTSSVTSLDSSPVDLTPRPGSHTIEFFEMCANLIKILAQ

For `COC(=O)CCS(=O)(=O)c1nc(-c2ccccc2)cc(C(F)(F)F)n1`, the half-maximal effective concentration (EC50) in assay [1] was 9.59 µM (inconclusive).
Consider `O=C(O)c1ccc(NC2=C(Cl)C(=O)c3ccccc3C2=O)cc1`, for which, in [1], the concentration giving a half-maximal response (EC50) was 6.24 µM (active). Also, in the assay with Vero, the CC50 is 28.3 µM (active).
Take `Cc1ccc2nccc(NC(=O)Nc3cccc(C(F)(F)F)n3)c2c1`: the Ki is > 2 µM (inactive) in assay [2]; > 5.01 µM (inactive) in assay [3]; > 2.51 µM (inactive) in assay [4]; > 7.94 µM (inactive) in assay [5]; > 6.31 µM (inactive) in assay [6]; > 6.31 µM (inactive) in [7]. Also, the Ki was > 2.51 µM (inactive) in assay [8]; > 1.58 µM (inactive) in assay [9]; > 3.16 µM (inactive) in assay [10]; > 2 µM (inactive) in assay [11]; > 6.31 µM (inactive) in assay [12]; > 1.58 µM (inactive) in assay [13]. Also, the Ki was > 3.16 µM (inactive) in assay [14]; 0.251 µM (active) in [15]; > 7.94 µM (inactive) in assay [16]; > 6.31 µM (inactive) in assay [17]; > 5.01 µM (inactive) in assay [18]; > 10 µM (inactive) in assay [19]. In addition, the Ki in assay [20] is > 10 µM (inactive); in assay [21], > 2 µM (inactive); in assay [22], > 10 µM (inactive); in assay [23], > 2 µM (inactive); in assay [24] it was > 3.98 µM (inactive); in [25] it was 2 µM (active). Moreover, the Ki in assay [26] was > 2.51 µM (inactive).
Regarding `Cc1nn(C)c2sc3c(=O)[nH]cnc3c12`, the Ki in assay [14] was > 31.6 µM (inactive).
`Cc1c(/N=C2\C=CC(=O)c3ccccc32)c(=O)n(-c2ccccc2)n1C`: in the assay on Vero, the CC50 is 20.6 µM (active).
Regarding `COc1cc2c(cc1F)C(c1ccccc1Cl)=Nc1c(n[nH]c1C)N2` [RG-1530], the inhibition constant (Ki) was 2.51 µM (active) in [2]; 3.16 µM (active) in assay [3]; 0.631 µM (active) in assay [4]; 3.16 µM (active) in assay [5]; > 6.31 µM (inactive) in assay [6]; > 6.31 µM (inactive) in [7]. Moreover, the Ki in assay [8] is > 2.51 µM (inactive); in [9], > 1.58 µM (inactive); in assay [10], 0.0794 µM (active); in assay [11], 0.02 µM (active); in assay [12] it was > 2.51 µM (inactive); in [13] it was > 1.58 µM (inactive). The inhibition constant Ki is 0.0794 µM (active) in [15]; > 7.94 µM (inactive) in assay [16]; > 6.31 µM (inactive) in assay [17]; > 5.01 µM (inactive) in assay [18]; > 10 µM (inactive) in assay [19]; > 6.31 µM (inactive) in assay [20]. The inhibition constant Ki in [21] was 0.0501 µM (active); in assay [22] it was 0.0398 µM (active); in [23], 0.0251 µM (active); in assay [24], 2 µM (active); in assay [25], > 10 µM (inactive); in [26], > 3.98 µM (inactive).

These data come from ChEMBL document CHEMBL1201862, “PubChem BioAssay data set” (2004).
